The text below walks through data of patent publication US20170002385A1, “USING CELL DEBRIS GENERATED FROM PHA RECOVERY FOR ENHANCED CELL GROWTH AND BIOPOLYESTER FORMATION” (BIO ON S.r.l., priority 2009, published 2017).

Several values for one entry are separate records, joined by “and”; a condition that tells them apart may be missing. Identical values can stand only once.

For this assay, the system named is PHA-producing microbial cells. The assay is described as follows: flask cultures: effect of cell debris solutions and SDS on cell growth and PHA formation. The format is cell-based. Conditions: for Cell mass: 12 g/L glucose. Here is the method: Starting with cell mass of high PHA content (72% w/w), production of 1 kg of PHA, in a purity of 96.4 w/w, generates about 0.45 kg of cell debris as shown in the scheme reported above. Disposal of this large amount of waste in aqueous solution is a task of high cost, but could be avoided with additional benefit if the cell debris could be reused in PHA fermentation. In order to reveal the effect of cell debris on cell growth and PHA formation, microbial cultures were conducted in 500 mL flasks in parallel. The flask cultures were set up with the same glucose concentrations (10-20 g/L), the same volume of mineral solution (160 mL) as shown in Table 1 reported hereinbelow, and the same inoculum and size. After predetermined amount of cell debris solutions were added, the total volume of flask cultures was raised to 200 mL by adding pre-sterilized distilled and deionized water. The flasks were shaken at 200 rpm and 30 ° C. in a rotary incubator for 24 or 48 hours. The cell mass concentration and PHA content were determined as described in the literature (see Jian Yu and Lilian X. L. Chen (2006), “Cost-effective recovery and purification of polyhydroxyalkanoates by selective dissolution of cell mass”, Biotechnology Progress, 22:547-553). […]
Surfactants such as SDS are optionally used in PHA recovery to disrupt cells and remove lipids and pigments from polyesters. They are soluble and left in the cell debris solutions, which may cause adverse effect on cell growth when the cell debris solution is reused in PHA fermentation. An acid-base cell debris solution containing 48.5 g/L of soluble solids and 5 g/L of SDS was used in this case. In the same flask cultures above (12 g/L of glucose), 8 mL of ABCDS was added to give 1.94 g/L of cell debris and 0.2 g/L of SDS. Additional SDS was also added to increase SDS concentration to 0.4, 0.6 and 0.8 g/L. Table 4 gives the results of cell growth and PHA formation at different surfactant levels. […] The benefit of cell debris at low SDS concentration (0.2-0.4 g/L) leads to 200-300% of increase in PHA concentration in comparison with the control.

Consider `CCCCCCCCCCCCOS(=O)(=O)[O-].[Na+]` [SDS, sodium dodecyl sulfate], for which the “PHA formation vs control without cell debris and surfactant” value was “enhanced” (SDS 0.2-0.6 g/L with 1.94 g/L cell debris) and “damaged to a great extent” (SDS 0.8 g/L with 1.94 g/L cell debris). Also, the Cell mass (SDS 0.2 g/L with 1.94 g/L cell debris (ABCDS), 24 hours) turned out to be 3.69 g/L; the Cell mass (SDS 0.2 g/L with 1.94 g/L cell debris (ABCDS), 48 hours) was found to be 4.99 g/L; the Cell mass (SDS 0.4 g/L with 1.94 g/L cell debris (ABCDS), 24 hours, sulfate) is 3.22 g/L and 3.33 g/L; the Cell mass (SDS 0.4 g/L with 1.94 g/L cell debris (ABCDS), 48 hours, sulfate) was 4.46 g/L and 4.62 g/L; the Cell mass (SDS 0.6 g/L with 1.94 g/L cell debris (ABCDS), 24 hours) is reported as 2.70 g/L; the Cell mass (SDS 0.6 g/L with 1.94 g/L cell debris (ABCDS), 48 hours) is 3.51 g/L. Also, the Cell mass is recorded as 2.59 g/L (SDS 0.8 g/L with 1.94 g/L cell debris (ABCDS), 24 hours) and 3.54 g/L (SDS 0.8 g/L with 1.94 g/L cell debris (ABCDS), 48 hours).
